molecular target: T1, Human Kv1.5 channels (Homo sapiens, UniProt P22460); test: Kv1.5 currents in Xenopus oocytes, two-microelectrode voltage clamp; format: cell-based; conditions: human Kv1.5 expressed in Xenopus laevis oocytes; voltage jumps 500 ms to 0 mV and 40 mV; room temperature; Hill equation
T1 construct: expressed in transfected cells; host or cells: Xenopus laevis oocytes injected with in vitro synthesized Kv1.5-encoding RNA
Procedure: Human Kv1.5 channels were expressed in Xenopus oocytes. For this purpose, firstly ooytes were isolated from Xenopus laevis and were defolliculated. Kv1.5-encoding RNA which had been synthesized in vitro was then injected into these oocytes. After 1-7 days of Kv1.5 protein expression, the Kv1.5 currents were measured on the oocytes by the two-microelectrode voltage clamp technique. The Kv1.5 channels were for this purpose usually activated with voltage jumps lasting 500 ms to 0 mV and 40 mV. A solution of the following composition flowed through the bath: NaCl 96 mM, KCl 2 mM, CaCl2 1.8 mM, MgCl2 1 mM, HEPES 5 mM (titrated to pH 7.4 with NaOH). These experiments were carried out at room temperature. The following were employed for data acquisition and analysis: geneclamp amplifier (Axon Instruments, Foster City, USA) and MacLab D/A converter and software (ADInstruments, Castle Hill, Australia). The compounds of the invention were tested by adding them in various concentrations to the bath solution. The effects of the compounds were calculated as percentage inhibition of the Kv1.5 control current which was obtained when no compound was added to the solution. The data were then extrapolated using the Hill equation in order to determine the inhibitory concentrations IC50 for the respective compounds.

T1 sequence (P22460 whole entry): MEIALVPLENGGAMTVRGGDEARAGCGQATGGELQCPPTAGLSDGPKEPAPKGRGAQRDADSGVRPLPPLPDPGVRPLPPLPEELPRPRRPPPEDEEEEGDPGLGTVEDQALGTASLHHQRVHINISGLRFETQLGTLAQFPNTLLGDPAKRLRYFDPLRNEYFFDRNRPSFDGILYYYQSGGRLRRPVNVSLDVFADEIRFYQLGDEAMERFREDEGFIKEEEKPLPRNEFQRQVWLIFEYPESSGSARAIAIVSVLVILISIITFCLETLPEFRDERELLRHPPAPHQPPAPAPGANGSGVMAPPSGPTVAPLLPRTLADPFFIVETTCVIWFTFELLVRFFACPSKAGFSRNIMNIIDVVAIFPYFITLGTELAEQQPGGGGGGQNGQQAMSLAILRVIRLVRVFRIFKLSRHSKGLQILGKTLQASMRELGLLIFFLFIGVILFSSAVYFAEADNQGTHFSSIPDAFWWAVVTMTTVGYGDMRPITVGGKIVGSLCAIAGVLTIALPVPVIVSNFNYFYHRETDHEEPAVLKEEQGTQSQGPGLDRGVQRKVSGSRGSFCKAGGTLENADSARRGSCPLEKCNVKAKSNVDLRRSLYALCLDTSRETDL

| Structure (SMILES) | IC50 |
| --- | --- |
| CC[C@H](NC(=O)c1ccccc1NS(=O)(=O)c1cccc(C)c1)c1ccccc1 [Example 59] | 1.7 µM |
| CCN(C(=O)c1ccccc1NS(=O)(=O)c1ccc(Cl)cc1)C1CCCCC1 [Example 11] | 8 µM |
| CCC(NC(=O)c1cccc(C)c1NS(=O)(=O)c1ccc(Cl)cc1)c1ccccc1 (stereo not drawn) [Example 10] | 2.5 µM |
| Cc1ccc(S(=O)(=O)Nc2ccccc2C(=O)NC(C)c2ccccc2)cc1 (stereo not drawn) [Example 28] | 3.2 µM |
| CCN(C(=O)c1cc(Cl)ccc1NS(=O)(=O)c1ccc(C)cc1)C1CCCCC1 [Example 16] | 6.4 µM |
| O=C(NC1CCCCC1)c1cc(Cl)ccc1NS(=O)(=O)c1ccccc1 [Example 17] | 7.5 µM |
| COc1ccc(S(=O)(=O)Nc2c(C)cccc2C(=O)NC(C)c2ccccc2)cc1 (stereo not drawn) [Example 19] | 4.2 µM |
| C[C@H](NC(=O)c1cc(Cl)ccc1NS(=O)(=O)c1ccccc1)c1ccccc1 [Example 1, (S)-2-Phenylsulfonylamino-5-chloro-N-(1-phenylethyl)benzamide] | 5.5 µM |
| Cc1ccc(S(=O)(=O)Nc2ccccc2C(=O)N(Cc2ccccc2)Cc2nccn2C)cc1 [Example 30] | 0.7 µM |
| CCN(C(=O)c1cc(Cl)ccc1NS(=O)(=O)c1ccccc1)C1CCCCC1 [Example 18] | 6.7 µM |
| O=C(c1ccccc1NS(=O)(=O)c1ccc(Cl)cc1)N(Cc1ccccc1)Cc1cccnc1 [Example 44] | 2.9 µM |
| COc1ccc(S(=O)(=O)Nc2cc(C)ccc2C(=O)NC(C)c2ccccc2)cc1 (stereo not drawn) [Example 9] | 4.9 µM |
| Cc1ccc(S(=O)(=O)Nc2ccccc2C(=O)N(Cc2ccccc2)Cc2ccncc2)cc1 [Example 33] | 6.5 µM |
| CC[C@H](NC(=O)c1cc(Cl)ccc1NS(=O)(=O)c1ccccc1)c1ccccc1 [Example 3, (S)-2-Phenylsulfonylamino-5-chloro-N-(1-phenylpropyl)benzamide] | 2.8 µM |
| CCCCS(=O)(=O)Nc1ccccc1C(=O)N[C@@H](CC)c1ccccc1 [Example 58] | > 10 µM |
| Cc1cccc(NS(=O)(=O)c2ccc(Cl)cc2)c1C(=O)NC(C)c1ccccc1 (stereo not drawn) [Example 23] | 5 µM |
| Cc1ccc(NS(=O)(=O)c2ccccc2)c(C(=O)NC2CCCCC2)c1 [Example 21] | 5.2 µM |
| Cc1ccc(S(=O)(=O)Nc2ccccc2C(=O)N(Cc2ccccc2)Cc2cccnc2)cc1 [Example 8, N-Benzyl-N-pyridin-3-ylmethyl-2-(toluene-4-sulfonylamino)benzamide] | 0.9 µM |
| CCCCS(=O)(=O)N(CC)c1ccccc1C(=O)N[C@@H](CC)c1ccccc1 [Example 57] | 5 µM |
| Cc1ccc(S(=O)(=O)Nc2ccccc2C(=O)N(CCc2ccccn2)CC2CC2)cc1 [Example 42] | 5 µM |
| COc1cc(C)ccc1S(=O)(=O)Nc1ccc(Cl)cc1C(=O)NCCOCc1ccccc1 [Example 29] | 5.1 µM |
| O=C(NC(c1ccccc1)c1ccccn1)c1cc(Cl)ccc1NS(=O)(=O)c1ccccc1 (stereo not drawn) [Example 7, 2-Phenylsulfonylamino-5-chloro-N-(phenylpyridin-2-ylmethyl)benzamide] | 5.1 µM |
| Cc1ccc(S(=O)(=O)Nc2ccccc2C(=O)N(CCCn2ccnc2)Cc2ccccc2)cc1 [Example 32] | 8.5 µM |
| COc1ccc(S(=O)(=O)Nc2cc(C)ccc2C(=O)NC2CCCCC2)cc1 [Example 25] | 3.4 µM |
| C[C@@H](NC(=O)c1cc(Cl)ccc1NS(=O)(=O)c1ccccc1)c1ccccc1 [Example 2, (R)-2-Phenylsulfonylamino-5-chloro-N-(1-phenylethyl)benzamide] | 8.2 µM |
| Cc1ccc(S(=O)(=O)Nc2cc(C)ccc2C(=O)N(Cc2ccccc2)Cc2nccn2C)cc1 [Example 40] | 0.8 µM |
| COc1ccc(S(=O)(=O)Nc2ccccc2C(=O)N(Cc2ccccc2)Cc2cccnc2)cc1 [Example 50] | 0.7 µM |
| COc1ccc([C@H](C)NC(=O)c2cc(Cl)ccc2NS(=O)(=O)c2ccccc2)cc1 [Example 5, (S)-2-Phenylsulfonylamino-5-chloro-N-[1-(4-methoxyphenyl)ethyl]-benzamide] | 4.5 µM |
| CCCCS(=O)(=O)Nc1ccc(C)cc1C(=O)NC(C)c1ccccc1 (stereo not drawn) [Example 55] | 4.6 µM |
| CCC(NC(=O)c1cc(OC)ccc1NS(=O)(=O)c1ccc(C)cc1)c1ccncc1 (stereo not drawn) [Example 53] | 2.5 µM |

Continued, values first:

| IC50 | Structure (SMILES) |
| --- | --- |
| 1.4 µM | COc1ccc(NS(=O)(=O)c2ccc(C)cc2)c(C(=O)NC(C)Cc2ccccn2)c1 (stereo not drawn) [Example 133] |
| 1.7 µM | Cc1ccc(S(=O)(=O)Nc2ccccc2C(=O)N(Cc2nn(C)cc2Cl)CC2CC2)cc1 [Example 111] |
| 5.2 µM | Cc1ccc(S(=O)(=O)Nc2ccccc2C(=O)N(Cc2ccn[nH]2)CC2CC2)cc1 [Example 85] |
| 0.3 µM | CC[C@H](NC(=O)c1cc(OC)ccc1NS(=O)(=O)c1ccc(OC)cc1)c1ccccc1 [Example 150] |
| 5.6 µM | CC[C@H](NC(=O)c1ccccc1NS(=O)(=O)c1ccc2ccccc2c1)c1ccccc1 [Example 61] |
| 0.7 µM | Cc1ccc(S(=O)(=O)Nc2ccccc2C(=O)N(Cc2ccccc2)Cc2cccnc2)cc1 [Example 79] |
| 5 µM | CCc1ccc(S(=O)(=O)Nc2ccccc2C(=O)N(Cc2ccccc2)Cc2cccnc2)cc1 [Example 72] |
| 1.4 µM | Cc1ccc(S(=O)(=O)Nc2ccccc2C(=O)N(Cc2cccc(C)n2)CC2CCCO2)cc1 (stereo not drawn) [Example 120] |
| 0.5 µM | Cc1ccc(S(=O)(=O)Nc2ccccc2C(=O)N(Cc2ccccc2)Cc2ccn[nH]2)cc1 [Example 112] |
| 0.9 µM | COc1ccc(S(=O)(=O)Nc2ccc(OC)cc2C(=O)NC(c2cccnc2)C2CC2)cc1 (stereo not drawn) [Example 134] |
| 2.6 µM | CCC(NC(=O)c1ccccc1NS(=O)(=O)c1ccc(C)cc1)c1ccco1 (stereo not drawn) [Example 145] |
| 1.2 µM | CCC(NC(=O)c1cc(OC)ccc1NS(=O)(=O)c1ccc(C)cc1)c1ccc(C)o1 (stereo not drawn) [Example 135] |
| 2.2 µM | Cc1ccc(S(=O)(=O)Nc2ccccc2C(=O)N(Cc2cccnc2)Cc2cccc(C)n2)cc1 [Example 118] |
| 1 µM | COc1cccc([C@H](C)NC(=O)c2cc(OC)ccc2NS(=O)(=O)c2ccc(C)cc2)c1 [Example 96] |
| 1.2 µM | Cc1ccc(S(=O)(=O)Nc2ccc(F)cc2C(=O)N(Cc2ccc(F)cc2)Cc2ccn[nH]2)cc1 [Example 108] |
| 3.5 µM | CC[C@H](NC(=O)c1ccccc1NS(=O)(=O)c1cccc2ccccc12)c1ccccc1 [Example 62] |
| 3.2 µM | COc1cccc(CN(CC2CC2)C(=O)c2ccccc2NS(=O)(=O)c2ccc(C)cc2)c1 [Example 82] |
| 0.6 µM | Cc1ccc(S(=O)(=O)Nc2ccccc2C(=O)N(Cc2cccc(C)n2)Cc2ccco2)cc1 [Example 121] |
| 0.9 µM | CCCCS(=O)(=O)Nc1ccc(C)cc1C(=O)NC(CC)c1ccc(C)o1 (stereo not drawn) [Example 136] |
| 2.6 µM | C[C@H](c1ccccc1)N(C)C(=O)c1ccccc1NS(=O)(=O)c1ccccc1 [Example 105] |

| IC50 | Structure (SMILES) |
| --- | --- |
| 1.4 µM | CCC(Cc1c[nH]c2ccccc12)NC(=O)c1cc(OC)ccc1NS(=O)(=O)c1ccc(C)cc1 (stereo not drawn) [Example 140] |
| 1.6 µM | Cc1ccc(S(=O)(=O)Nc2ccc(F)cc2C(=O)N(Cc2ccccc2)CC2CCCO2)cc1 (stereo not drawn) [Example 100] |
| 4.7 µM | CC[C@H](NC(=O)c1ccccc1NS(=O)(=O)c1ccc(C)cc1OC)c1ccccc1 [Example 76] |
| 3.8 µM | CC[C@H](NC(=O)c1cc(OC)ccc1NS(=O)(=O)CC)c1ccccc1 [Example 147] |
| 0.7 µM | Cc1ccc(S(=O)(=O)Nc2ccc(F)cc2C(=O)N(Cc2ccccc2)Cc2ccn[nH]2)cc1 [Example 102] |
| 2.2 µM | C#CC(NC(=O)c1cc(C)ccc1NS(=O)(=O)CCCC)c1ccccc1 (stereo not drawn) [Example 128] |
| 3.1 µM | CCCS(=O)(=O)Nc1ccccc1C(=O)N[C@@H](CC)c1ccccc1 [Example 73] |
| 3.8 µM | COc1cccc(S(=O)(=O)Nc2ccccc2C(=O)N(Cc2ccccc2)Cc2cccnc2)c1 [Example 70] |
| 3.6 µM | COc1ccc(NS(=O)(=O)c2ccc(C)cc2)c(C(=O)N[C@H]2CC[C@H](C)CC2)c1 [Example 143] |
| 0.8 µM | CCC(NC(=O)c1cc(OC)ccc1NS(=O)(=O)c1ccc(C)cc1)c1ccc(F)cc1 (stereo not drawn) [Example 91] |
| 1.1 µM | CCC(NC(=O)c1cc(OC)ccc1NS(=O)(=O)c1ccc(C)cc1)c1ccc(C)nc1 (stereo not drawn) [Example 141] |
| 2.1 µM | CCCS(=O)(=O)Nc1ccc(OC)cc1C(=O)N[C@@H](CC)c1ccccc1 [Example 148] |
| 3.3 µM | CCCCS(=O)(=O)Nc1ccc(C)cc1C(=O)NC(c1cccc(OC)n1)C1CC1 (stereo not drawn) [Example 127] |
| 1.2 µM | Cc1ccc(S(=O)(=O)Nc2ccccc2C(=O)N(Cc2ccco2)Cc2nccn2C)cc1 [Example 122] |
| 1.1 µM | COc1ccc(NS(=O)(=O)c2ccc(C)cc2)c(C(=O)NC(c2ccccc2)C2CC2)c1 (stereo not drawn) [Example 93] |
| 0.9 µM | Cc1ccc(S(=O)(=O)Nc2ccc(F)cc2C(=O)N(Cc2ccc(F)cc2)Cc2nccn2C)cc1 [Example 107] |
| 1.1 µM | Cc1ccc(S(=O)(=O)Nc2ccccc2C(=O)N(Cc2ccc(F)cc2)Cc2nccn2C)cc1 [Example 109] |
| 2.2 µM | CC[C@H](NC(=O)c1cc(OC)ccc1NS(=O)(=O)C(C)C)c1ccccc1 [Example 149] |
| 1.5 µM | CC[C@H](NC(=O)c1ccccc1NS(=O)(=O)c1ccc(OC)c(OC)c1)c1ccccc1 [Example 151] |
